Assay type in all cases: cell-based
The test system of experiment [1] is psychrotrophs. The experiment in a line: Growth of psychrotrophs in raw milk under nitrogen gas. The following applies: 12.0° C., N1 environment (120 ml/min). As for the experimental part: With the device shown in FIG. 1, the effect of nitrogen gas on the natural microflora in raw milk (volume approximately 125 ml) was examined by replacing the air (control) in an open vessel (volume approximately 250 ml) at a constant temperature, with a flow-through of 100% nitrogen gas (purity 99.999%, manufacturer AGA) at two different flow-through rates: N1=120 ml/min, N2=40 ml/min. The temperature of the raw milk in the sample bottles was adjusted by means of the thermostat (14) of the water bath to bring the temperature of the milk to 6.0° C., 7.0° C. or 12.0° C. The temperature variation in the vessel was less than ±0.1° C. The effect of nitrogen gas on the growth of the microflora in a raw milk sample at 12.0° C. Two flow-through rates of the nitrogen gas were used in the study: (▴) 40 ml/min and ([…]) 120 ml/min. […] The following bacterial levels were determined in the samples: The effect of nitrogen gas on the growth of the microflora in a raw milk sample at 12.0° C. Two flow-through rates of the nitrogen gas were used in the study: (▴) 40 ml/min and ([…]) 120 ml/min. […] The following bacterial levels were determined in the samples: […]

Experiment [2] concerns natural microflora in raw milk (total bacteria count). Put plainly: Growth of the natural microflora (total bacteria count) in raw milk under nitrogen gas. As for the experimental part:
With the device shown in FIG. 1, the effect of nitrogen gas on the natural microflora in raw milk (volume approximately 125 ml) was examined by replacing the air (control) in an open vessel (volume approximately 250 ml) at a constant temperature, with a flow-through of 100% nitrogen gas (purity 99.999%, manufacturer AGA) at two different flow-through rates: N1=120 ml/min, N2=40 ml/min. The apparatus comprises a nitrogen source (1), which is connected by means of a flow channel (2) to two sample bottles (3 and 4). The device also comprises a bottle (5) which contains a reference sample. Filters (6a, 6b, 7a, 7b and 8a, 8b) are connected to the gas flow channels (2), which are made of silicon pipe/hose. The pore size of the filters is 0.2 μm. A flow meter is attached to the flow channels (2), in order to allow the rate at which the gas flows are to be adjusted. The sample bottles are placed in a water bath (10). […] and magnetic mixers (12) are used to mix the contents of the bottles. The water of the water bath (10) is cooled with a cooling coil (11) which is connected to a cooling unit (13), and the entire test apparatus is placed in a cold store, the temperature of which is 5° C. (except the nitrogen bottle). The water temperature of the water bath (10) is adjusted to a desired temperature with the help of an adjustable submersible thermostat (14). The temperature of the raw milk in the sample bottles was adjusted by means of the thermostat (14) of the water bath to bring the temperature of the milk to 6.0° C., 7.0° C. or 12.0° C. The temperature variation in the vessel was less than ±0.1° C. […] The effect of nitrogen gas on the growth of the microflora in a raw milk sample at 6.0° C. Two flow-through rates of the nitrogen gas were used in the study: (▴) 40 ml/min and ([…])120 ml/min. […] The following bacterial levels were determined in the samples: The effect of nitrogen gas on the growth of the microflora in a raw milk sample at 7.0° C. Two flow-through rates of the nitrogen gas were used in the study: (▴) 40 ml/min and ([…])120 ml/min. […] The following bacterial levels were determined in the samples: The effect of nitrogen gas on the growth of the microflora in a raw milk sample at 12.0° C. Two flow-through rates of the nitrogen gas were used in the study: (▴) 40 ml/min and ([…]) 120 ml/min. […] The following bacterial levels were determined in the samples: […]

For experiment [3], the system named is anaerobically cultivated phospholipase-producing bacteria. Put plainly: Number of anaerobically cultivated phospholipase-producing bacteria in raw milk under nitrogen gas. The following applies: 12.0° C., FIG. 5K. Here is the method: With the device shown in FIG. 1, the effect of nitrogen gas on the natural microflora in raw milk (volume approximately 125 ml) was examined by replacing the air (control) in an open vessel (volume approximately 250 ml) at a constant temperature, with a flow-through of 100% nitrogen gas (purity 99.999%, manufacturer AGA) at two different flow-through rates: N1=120 ml/min, N2=40 ml/min. The temperature of the raw milk in the sample bottles was adjusted by means of the thermostat (14) of the water bath to bring the temperature of the milk to 6.0° C., 7.0° C. or 12.0° C. The temperature variation in the vessel was less than ±0.1° C. The effect of nitrogen gas on the growth of the microflora in a raw milk sample at 12.0° C. Two flow-through rates of the nitrogen gas were used in the study: (▴) 40 ml/min and ([…]) 120 ml/min. […] The following bacterial levels were determined in the samples: FIG. 5A: Total bacteria count (p.m.y./ml) FIG. 5B: Total number of psychrotrophs (p.m.y./ml) FIG. 5C: Total number of proteolytic bacteria (p.m.y./ml) FIG. 5D: Total number of lipolytic bacteria (p.m.y./ml) FIG. 5E: Total number of bacteria producing phospholipase (p.m.y./ml). […]

Where [4] appears, read: 6.0° C., N2 environment (40 ml/min).

`N#N` [nitrogen gas]: the “growth of the psychrotrophs” value in experiment [1] (Example 4 sample) is on record as “no longer prevents the growth of the psychrotrophs, instead it delays it”; in experiment [1] (Example 5 sample) it was “substantially delay”. Also, the “growth of the bacteria” value in experiment [2] (6.0° C., N1 environment (120 ml/min), measurement period of 11 days) is recorded as “totally prevents the growth of the bacteria”. Besides, in experiment [2] (setting [4]), the “growth of the microbes” value was “capable of preventing the growth of the microbes for 7 days”. In addition, the “increase of the microbe level during a period of 3 days” value in experiment [2] (setting [4]) was “less than 1 log-unit”. Moreover, in experiment [2] (7.0° C., N1 environment (120 ml/min), prevents = log increases by less than one unit in 3 days), the “total growth/the growth of the microbes” value was “still prevents”. For the same molecule, the “growth of the total microbial count” value in experiment [2] (7.0° C., N2 environment (40 ml/min)) is on record as “delays the growth of the total microbial count, although it cannot totally prevent the growth”; in experiment [2] (12.0° C., N1 environment (120 ml/min), Example 4 sample), “still prevents or nearly prevents the growth of the total microbial count”. In addition, the “growth of the total number of the microbes” value in experiment [2] (12.0° C., N1 environment (120 ml/min), Example 5 sample) was “substantially delay the growth of the total number of the microbes”. The “growth of the anaerobic bacteria which secrete phospholipase” value in experiment [3] (N1 environment (120 ml/min)) and in experiment [3] (N2 environment (40 ml/min)) was “total prevention of growth” in each case.
